Reference: US20250332173A1, “COMPOUNDS AND METHODS FOR MODULATING NUCLEIC ACID SPLICING” (REMIX THERAPEUTICS INC., priority 2021, published 2025)
Where two headings read alike, the source gives them in different places.

Experiments:
[1] = tested on: MYB mRNA; assay: RT-qPCR splicing assay, MYB canonical junction (CJ) and alternative junction (AJ) mRNA; type: cell-based, human; details: Homo sapiens; for AC50: increase in MYB alternative junction (AJ) mRNA, read-out: MYB AJ AC50
Outline: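 A673 cells (normalized to PPIA) or K562 cells (normalized to GAPDH or GUSB) were treated 24 h at 37 °C with an 11-point 3-fold dilution series, top 10 uM, DMSO ≤0.25%. Cell lysates went to one-step RT-qPCR measuring canonical- and alternative-junction MYB or HTT transcripts.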

[2] = tested on: Target C; assay: RT-qPCR splicing assay panel, Target C canonical junction (CJ) mRNA; type: cell-based, human; details: Homo sapiens; Table 5 panel; canonical junction qPCR; compound concentration having 50% response in CJ decrease; read-out: Target C IC50 (decrease in CJ mRNA levels)
Outline: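 Canonical-junction transcript levels in compound-treated A673 or K562 cells (24 h, up to 10 uM final) were determined from lysates by RT-qPCR with housekeeping-gene normalization.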

[3] = tested on: K562 (human chronic myelogenous leukemia) cells; assay: Cell Titer Glo 2.0 cell viability assay; type: cell-based; details: Homo sapiens, K562, 72 h, K562 cells, 72 hours, Cell Titer Glo 2.0; read-out: K562 GI50
[4] = Table 5 panel, canonical junction qPCR, compound concentration having 50% response in CJ decrease, read-out: MYB IC50 (decrease in CJ mRNA levels)
[5] = decrease in MYB canonical junction (CJ) mRNA, RT-qPCR, read-out: MYB CJ IC50

## Cc1cn2nc(-c3ccc4c(=O)n(C5CCN(C)CC5)cnc4c3)nc2c(C)n1 [Compound 288, 7-{6,8-dimethyl-[1,2,4]triazolo[1,5-a]pyrazin-2-yl}1-3-(1-methylpiperidin-4-yl)quinazolin-4-one]
[1]; [4]
  IC50: 1 to 10 µM
[1]; [5]
  IC50: 1 to 10 µM
[1]; RT-qPCR
  AC50: 1 to 10 µM
[2]
  IC50: 1 to 10 µM
[3]
  GI50: 1 to 10 µM

## Cc1cn2cc(-c3ccc4c(=O)n(C5CCNCC5)cnc4c3)cc(Cl)c2n1 [Compound 291]
[1]; [4]
  IC50: 0.1 to 1 µM
[1]; [5]
  IC50: < 0.1 µM
[1]; RT-qPCR
  AC50: 0.1 to 1 µM
[2]
  IC50: 0.1 to 1 µM
[3]
  GI50: < 0.1 µM

## Cc1cn2cc(-c3ccc4c(=O)n(C5CCNCC5)cnc4c3)cc(C)c2n1 [Compound 292]
[1]; [4]
  IC50: 0.1 to 1 µM
[1]; [5]
  IC50: 0.1 to 1 µM
[1]; RT-qPCR
  AC50: 0.1 to 1 µM
[2]
  IC50: 1 to 10 µM
[3]
  GI50: 0.1 to 1 µM

## Cc1cn2cc(-c3ccc4c(=O)n([C@@H]5CCN[C@@H](C)C5)cnc4c3)cc(F)c2n1 [Compound 293]
[1]; [4]
  IC50: 0.1 to 1 µM
[1]; [5]
  IC50: 0.1 to 1 µM
[1]; RT-qPCR
  AC50: 0.1 to 1 µM
[2]
  IC50: 1 to 10 µM
[3]
  GI50: 0.1 to 1 µM

## Cc1cn2cc(-c3ccc4c(=O)n(C5CCN[C@@H](C)C5)cnc4c3)cc(F)c2n1 (stereo partly drawn) [Compound 294]
[1]; [4]
  IC50: 0.1 to 1 µM
[1]; [5]
  IC50: 0.1 to 1 µM
[1]; RT-qPCR
  AC50: 0.1 to 1 µM
[2]
  IC50: 1 to 10 µM
[3]
  GI50: 0.1 to 1 µM

## Cc1cn2cc(-c3ccc4c(=O)n([C@@H]5CCN[C@H](C)C5)cnc4c3)cc(F)c2n1 [Compound 295]
[1]; [4]
  IC50: 0.1 to 1 µM
[1]; [5]
  IC50: 0.1 to 1 µM
[1]; RT-qPCR
  AC50: 0.1 to 1 µM
[2]
  IC50: > 10 µM
[3]
  GI50: 0.1 to 1 µM

## Cc1cn2cc(-c3ccc4c(=O)n([C@H]5CCN[C@H](C)C5)cnc4c3)cc(F)c2n1 [Compound 296]
[1]; [4]
  IC50: < 0.1 µM
[1]; [5]
  IC50: < 0.1 µM
[1]; RT-qPCR
  AC50: < 0.1 µM
[2]
  IC50: 0.1 to 1 µM
[3]
  GI50: 0.1 to 1 µM

## Cc1cn2cc(-c3ccc4c(=O)n(C5CCNCC5)cnc4c3)ncc2n1 [Compound 297]
[1]; [4]
  IC50: 0.1 to 1 µM
[1]; [5]
  IC50: 0.1 to 1 µM
[1]; RT-qPCR
  AC50: 0.1 to 1 µM
[2]
  IC50: 1 to 10 µM
[3]
  GI50: 1 to 10 µM

## Cc1cn2nc(-c3ccc4c(=O)n(C5CCNCC5)cnc4c3)cc2c(C)n1 [Compound 298]
[1]; [4]
  IC50: 0.1 to 1 µM
[1]; [5]
  IC50: 0.1 to 1 µM
[1]; RT-qPCR
  AC50: 0.1 to 1 µM
[2]
  IC50: 1 to 10 µM
[3]
  GI50: 1 to 10 µM

## CN1CCC(n2cnc3cc(-c4cn[nH]c4)ccc3c2=O)CC1 [Compound 299]
[1]; [4]
  IC50: > 10 µM
[1]; [5]
  IC50: > 10 µM
[1]; RT-qPCR
  AC50: > 10 µM
[2]
  IC50: > 10 µM
[3]
  GI50: > 10 µM

## Cc1nc2c(F)cc(-c3ccc4c(=O)n(C5CCN(C)CC5)cnc4c3)cc2o1 [Compound 300]
[1]; [4]
  IC50: 1 to 10 µM
[1]; [5]
  IC50: 0.1 to 1 µM
[1]; RT-qPCR
  AC50: 1 to 10 µM
[2]
  IC50: 1 to 10 µM
[3]
  GI50: 1 to 10 µM

## Cc1nc2c(F)cc(-c3ccc4c(=O)n(C5CCN(C)CC5)cnc4c3)cc2s1 [Compound 301]
[1]; [4]
  IC50: 1 to 10 µM
[1]; [5]
  IC50: 1 to 10 µM
[1]; RT-qPCR
  AC50: 1 to 10 µM
[2]
  IC50: 1 to 10 µM
[3]
  GI50: 1 to 10 µM

## Cc1cn2cc(-c3ccc4c(=O)n(C5CCN(C)CC5)cnc4c3)nc2c(C)n1 [Compound 302]
[1]; [4]
  IC50: 1 to 10 µM
[1]; [5]
  IC50: 1 to 10 µM
[1]; RT-qPCR
  AC50: 1 to 10 µM
[2]
  IC50: 1 to 10 µM
[3]
  GI50: 1 to 10 µM

## Cc1cn2nc(-c3ccc4c(=O)n(C5CCN(C)CC5)cnc4c3)cc2c(C)n1 [Compound 303]
[1]; [4]
  IC50: 1 to 10 µM
[1]; [5]
  IC50: 1 to 10 µM
[1]; RT-qPCR
  AC50: 1 to 10 µM
[2]
  IC50: 1 to 10 µM
[3]
  GI50: 1 to 10 µM

## CC[C@@H]1C[C@H](n2ncc3cc(-c4cc(C)c5nc(C)cn5n4)ccc3c2=O)CCN1 [Compound 304]
[1]; [4]
  IC50: 0.1 to 1 µM
[1]; [5]
  IC50: 0.1 to 1 µM
[1]; RT-qPCR
  AC50: 0.1 to 1 µM
[2]
  IC50: 1 to 10 µM
[3]
  GI50: 0.1 to 1 µM

## Cc1cn2cc(-c3ccc4c(=O)n(C5CCNCC5)cnc4c3)cc(C(F)(F)F)c2n1 [Compound 306]
[1]; [4]
  IC50: 1 to 10 µM
[1]; [5]
  IC50: > 10 µM
[1]; RT-qPCR
  AC50: 1 to 10 µM
[2]
  IC50: 1 to 10 µM
[3]
  GI50: 0.1 to 1 µM

## Cc1cn2cc(-c3ccc4c(=O)n(C5CCN(C)CC5)cnc4c3)ncc2n1 [Compound 308]
[1]; [4]
  IC50: 1 to 10 µM
[1]; [5]
  IC50: 1 to 10 µM
[1]; RT-qPCR
  AC50: 1 to 10 µM
[2]
  IC50: 1 to 10 µM
[3]
  GI50: 1 to 10 µM

## Cc1cn2nc(-c3ccc4c(=O)n(C5CCN(C)CC5)ccc4c3)cc(C)c2n1 [Compound 310]
[1]; [4]
  IC50: < 0.1 µM
[1]; [5]
  IC50: < 0.1 µM
[1]; RT-qPCR
  AC50: < 0.1 µM
[2]
  IC50: 0.1 to 1 µM
[3]
  GI50: 1 to 10 µM

## Cc1cc(-c2cnc3c(=O)n(C4CCNCC4)cnc3c2)cc2cn(C)nc12 [Compound 311]
[1]; [4]
  IC50: 1 to 10 µM
[1]; [5]
  IC50: 1 to 10 µM
[1]; RT-qPCR
  AC50: 1 to 10 µM
[2]
  IC50: 1 to 10 µM
[3]
  GI50: 1 to 10 µM

## Cc1cn2nc(-c3cc(F)c4c(=O)n(C5CCNC6(CC6)C5)ncc4c3)cc(C)c2n1 (stereo not drawn) [Compound 312]
[1]; [4]
  IC50: < 0.1 µM
[1]; [5]
  IC50: < 0.1 µM
[1]; RT-qPCR
  AC50: < 0.1 µM
[2]
  IC50: < 0.1 µM
[3]
  GI50: 0.1 to 1 µM

## Cn1cc2cc(-c3cc(F)c4c(=O)n(C5CCNCC5)cnc4c3)cc(F)c2n1 [Compound 314]
[1]; [4]
  IC50: 1 to 10 µM
[1]; [5]
  IC50: 1 to 10 µM
[1]; RT-qPCR
  AC50: 1 to 10 µM
[2]
  IC50: > 10 µM
[3]
  GI50: 1 to 10 µM

## Cn1cc2cc(-c3cc(F)c4c(=O)n(C5CCNCC5)cnc4c3)c(F)cc2n1 [Compound 315]
[1]; [4]
  IC50: 0.1 to 1 µM
[1]; [5]
  IC50: 0.1 to 1 µM
[1]; RT-qPCR
  AC50: 0.1 to 1 µM
[2]
  IC50: 1 to 10 µM
[3]
  GI50: 1 to 10 µM

## Cn1cc2cc(-c3cc(F)c4c(=O)n(C5CCNCC5)cnc4c3)cc(C#N)c2n1 [Compound 316]
[1]; [4]
  IC50: < 0.1 µM
[1]; [5]
  IC50: < 0.1 µM
[1]; RT-qPCR
  AC50: < 0.1 µM
[2]
  IC50: 0.1 to 1 µM
[3]
  GI50: 0.1 to 1 µM

## Cc1cn2cc(-c3cc(F)c4c(=O)n(C5CCNCC5)cnc4c3)cc(C)c2n1 [Compound 317]
[1]; [4]
  IC50: < 0.1 µM
[1]; [5]
  IC50: 0.1 to 1 µM
[1]; RT-qPCR
  AC50: < 0.1 µM
[2]
  IC50: 0.1 to 1 µM
[3]
  GI50: 0.1 to 1 µM

## Cc1cn2nc(-c3cc(F)c4c(=O)n(C5CCNCC5)cnc4c3)cc2c(C)n1 [Compound 318]
[1]; [4]
  IC50: < 0.1 µM
[1]; [5]
  IC50: < 0.1 µM
[1]; RT-qPCR
  AC50: < 0.1 µM
[2]
  IC50: 0.1 to 1 µM
[3]
  GI50: 0.1 to 1 µM

## Cc1cn2cc(-c3cc(F)c4c(=O)n(C5CCNCC5)cnc4c3)nc2c(C)n1 [Compound 319]
[1]; [4]
  IC50: 0.1 to 1 µM
[1]; [5]
  IC50: 1 to 10 µM
[1]; RT-qPCR
  AC50: 0.1 to 1 µM
[2]
  IC50: 1 to 10 µM
[3]
  GI50: 0.1 to 1 µM

## COc1cc(-c2cc(F)c3c(=O)n(C4CCNCC4)cnc3c2)cnn1 [Compound 320]
[1]; [4]
  IC50: > 10 µM
[1]; [5]
  IC50: > 10 µM
[1]; RT-qPCR
  AC50: > 10 µM
[2]
  IC50: > 10 µM
[3]
  GI50: > 10 µM

## Cc1cn2nc(-c3cc(F)c4c(=O)n(C5CCNCC5)ccc4c3)cc(C)c2n1 [Compound 322]
[1]; [4]
  IC50: < 0.1 µM
[1]; [5]
  IC50: < 0.1 µM
[1]; RT-qPCR
  AC50: < 0.1 µM
[2]
  IC50: < 0.1 µM
[3]
  GI50: < 0.1 µM

## Cc1cn2cc(-c3cc(F)c4c(=O)n([C@H]5CCNC[C@H]5F)cnc4c3)cc(F)c2n1 [Compound 338]
[1]; [4]
  IC50: < 0.1 µM
[1]; [5]
  IC50: < 0.1 µM
[1]; RT-qPCR
  AC50: < 0.1 µM
[2]
  IC50: 1 to 10 µM
[3]
  GI50: 0.1 to 1 µM

## Cc1cn2cc(-c3cc(F)c4c(=O)n(C5CCNCC5(F)F)cnc4c3)cc(F)c2n1 (stereo not drawn) [Compound 339]
[1]; [4]
  IC50: 1 to 10 µM
[1]; [5]
  IC50: 1 to 10 µM
[1]; RT-qPCR
  AC50: 1 to 10 µM
[2]
  IC50: > 10 µM
[3]
  GI50: > 10 µM
